{"source": "ChEMBL document CHEMBL1155510", "about": "“Scaffold rearrangement of dihydroxypyrimidine inhibitors of HIV integrase: Docking model revisited” (Bioorg Med Chem Lett, 2010)", "key": {"[1]": {"experiment": "Inhibition of HIV integrase 3'-end processing reaction", "set-up": "species or system Human immunodeficiency virus"}, "[2]": {"experiment": "Inhibition of HIV integrase strand transfer activity", "set-up": "species or system Human immunodeficiency virus"}}, "data": [{"smiles": "CNC(=O)c1nc(Cc2ccc(F)cc2)[nH]c(=O)c1O", "values": [{"measurement": "IC50", "setting": "[1]", "value": "> 333", "unit": "µM"}, {"measurement": "IC50", "setting": "[2]", "value": 169, "unit": "µM"}]}, {"smiles": "CNC(=O)c1nc(C)n(Cc2ccc(F)cc2)c(=O)c1O", "values": [{"measurement": "IC50", "setting": "[1]", "value": "> 333", "unit": "µM"}, {"measurement": "IC50", "setting": "[2]", "value": 111, "unit": "µM"}]}, {"smiles": "CN(C)CCCNC(=O)c1nc(Cc2ccc(F)cc2)[nH]c(=O)c1O", "values": [{"measurement": "IC50", "setting": "[1]", "value": "> 333", "unit": "µM"}, {"measurement": "IC50", "setting": "[2]", "value": "> 333", "unit": "µM"}]}, {"smiles": "O=C(O)c1nc(Cc2ccc(F)cc2)[nH]c(=O)c1O", "values": [{"measurement": "IC50", "setting": "[1]", "value": "> 333", "unit": "µM"}, {"measurement": "IC50", "setting": "[2]", "value": 243, "unit": "µM"}]}, {"smiles": "CNC(=O)c1nc(Cc2ccc(F)cc2)n(C)c(=O)c1O", "values": [{"measurement": "IC50", "setting": "[1]", "value": "> 333", "unit": "µM"}, {"measurement": "IC50", "setting": "[2]", "value": 241, "unit": "µM"}]}, {"smiles": "COCCNC(=O)c1nc(Cc2ccc(F)cc2)[nH]c(=O)c1O", "values": [{"measurement": "IC50", "setting": "[1]", "value": "> 333", "unit": "µM"}, {"measurement": "IC50", "setting": "[2]", "value": 206, "unit": "µM"}]}]}
